Test results: paper PMC12295927, “Design, Synthesis, and Testing of 1,2,3-Triazolo-Quinobenzothiazine Hybrids for Cytotoxic and Immunomodulatory Activity” (International Journal of Molecular Sciences, 2025)

Assays:
[1] = tested on: xenografted MGC-803 tumor; set-up: method as in PMID 30345465; conditions: oral study; cited from earlier work
[2] = tested on: MGC-803 gastric cancer cells; set-up: method as in PMID 30345465; conditions: cited from earlier work
MDM2 gene = test: RT-qPCR MDM2 gene expression in BEAS-2B; type: cell-based, Human; conditions: Homo sapiens, 24 h, reference gene RPL41, vs untreated control, read-out: Relative level of expression, MDM2 gene
Procedure: (§1) Real-time polymerase chain reaction was performed for the reference gene RPL41 (ribosomal protein L41) and the tested genes: BCL2, AIFM2, MDM2, IL6 and IL8. […] The BEAS-2B line was selected for the experiment. The expression level of selected genes was measured after 24 h of incubation with the tested substances MJ1–MJ20 at a concentration of 100 μM (Table 3).
The RT-qPCR experiment was performed for the BEAS-2B cell line. In this experiment, the MDM2 gene was studied and RPL41 was used as reference gene (Figure 15).
(§2) Gene expression studies used quantitative RT-qPCR to assess the effect of the tested quinobenzothiazines (MJ1–MJ20) on the expression of apoptosis-related genes (BCL2, AIFM2, MDM2) and pro-inflammatory cytokines (IL6, IL8) (Table 4).
(§3) BEAS-2B and HCT116 cells were seeded in 6-well plates at 2 × 10^5 cells per well and cultured in RPMI-1640 (BEAS-2B) or DMEM (HCT116) medium supplemented with 10% FBS and 1% penicillin/streptomycin at 37 °C, 5% CO2 and 95% humidity. After 24 h of incubation, the tested compounds were added at a concentration of 100 µM. After 24 h, the medium was removed from the cells, washed with PBS solution, 0.5 mL of trypsin was added per well and after 5 min it was neutralized with medium. The obtained cell suspension was centrifuged for 3 min at 2000 rpm, the supernatant was removed, and the obtained pellet was suspended in 400 µL of phenozol. Samples were frozen at −20 °C and stored until further experiment and RNA isolation.
(§4) Total RNA was isolated from cells using the A&A Biotechnology Total RNA Mini kit according to the manufacturer’s protocol. RNA quality and quantity were assessed using a NanoDrop 2000 spectrophotometer at 260/280 nm. Reverse transcription was performed using the protocol (EURx NG dART RT Kit) to obtain cDNA. After incubation, samples were placed in a freezer (−20 °C) and stored until further analysis.
(§5) The experiment was performed according to the protocol (Brilliant III Ultra Fast SYBR® Green QPCR Master Mix, Quick Reference Guide for the Bio-Rad CFX96 Real-Time PCR Detection System). RT-qPCR reaction was performed using specific primers for target genes (BCL2, AIFM2, MDM2, IL6, IL8). Gene expression was normalized to the expression of the reference gene RPL41. Reaction profiles and results were performed using Bio-Rad CFX Maestro 1.1 software from Bio-Rad. Analysis and calculations of the results obtained during RT-qPCR were performed using Microsoft Excel.
(§6) The results were analyzed using the R = 2^−ΔΔCt method, which allows for determining the relative level of gene expression (R) compared to the control. Each experiment was performed in three technical and biological replicates. RT-qPCR allowed for precise assessment of changes in the expression of genes related to the processes of apoptosis and inflammatory response under the influence of quinobenzothiazines, which allowed for identifying their potential mechanisms of action at the molecular level.

BEAS-2B = test: Alamar Blue cytotoxicity test, BEAS-2B; type: cell-based, Human; conditions: Homo sapiens, 24 h, 24 h incubation, read-out: IC50 values for BEAS-2B line
Procedure: The cytotoxicity of the tested chemical compounds MJ1–MJ20 was tested using the Alamar Blue test. The experiment was conducted on cell lines BEAS-2B (Figure 7), HCT116 (Figure 8), U2OS (Figure 9), MCF7 (Figure 10), SH-SY5Y (Figure 11), NHDF (Figure 12), and A549 (Figure 13). Cells were seeded in 96-well plates and incubated with the tested compounds for 24 h. The test result is the IC50 parameter, which is a measure of cytotoxic activity expressed by the concentration of the substance that causes the death of half of the analyzed cells compared to the control.
In cytotoxicity studies, the Alamar Blue test was used, which is based on the ability of living cells to reduce the non-fluorescent dye resazurin to fluorescent resorufin, which reflects the metabolic activity of cells. BEAS-2B, NHDF, HCT116, MCF7, A549, SH-SY5Y and U2OS cell lines were cultured under standard conditions, in DMEM medium supplemented with 10% FBS and 1% penicillin/streptomycin, at 37 °C, 5% CO2 and 95% humidity. Cells were seeded in 96-well plates at 1 × 10^4 cells per well and incubated for 24 h. Then, the tested compounds (MJ1–MJ20) were added at different concentrations (from 6.25 µM to 100 µM). The control contained cells untreated with the tested compounds. After 24 h of incubation, 10 µL of Alamar Blue solution was added to each well and incubated for another 2–4 h under the same conditions. The signal was measured spectrophotometrically at wavelengths of 570 nm (for resorufin) and 600 nm (for resazurin) or optionally fluorimetrically, using an excitation maximum of 570 nm and an emission maximum of 585 nm. The results were presented as percentage of cell survival relative to the control, calculating the ratio of absorbance or fluorescence of the sample to the control value. The Alamar Blue assay, due to its sensitivity and non-toxicity, allows for an accurate assessment of metabolic activity and cell survival in response to the tested quinobenzothiazines.

AIFM2 gene = test: RT-qPCR AIFM2 gene expression in BEAS-2B; type: cell-based, Human; conditions: Homo sapiens, 24 h, reference gene RPL41, vs untreated control, read-out: Relative level of expression, AIFM2 gene
Procedure: as §1
The RT-qPCR experiment was performed for the BEAS-2B cell line. In this experiment, the AIFM2 gene was studied and RPL41 was used as reference gene (Figure 16).
as §2, §3, §4, §5, §6

IL6 gene = test: RT-qPCR IL6 gene expression in BEAS-2B; type: cell-based, Human; conditions: Homo sapiens, 24 h, reference gene RPL41, vs untreated control, read-out: Relative level of expression, IL6 gene
Procedure: as §1
(§7) The RT-qPCR experiment was performed for the BEAS-2B cell line. In this experiment, the IL6 and IL8 genes were studied and RPL41 was used as a reference gene (Figure 17 and Figure 18).
as §2, §3, §4, §5, §6

IL8 gene = test: RT-qPCR IL8 gene expression in BEAS-2B; type: cell-based; conditions: Homo sapiens, 24 h, reference gene RPL41, vs untreated control, read-out: Relative level of expression, IL8 gene
Procedure: as §1, §7, §2, §3, §4, §5, §6

BCL2 gene = test: RT-qPCR BCL2 gene expression in BEAS-2B; type: cell-based, Human; conditions: Homo sapiens, 24 h, reference gene RPL41, vs untreated control, read-out: Relative level of expression, BCL2 gene
Procedure: as §1
The RT-qPCR experiment was performed for the BEAS-2B cell line. In this experiment, the BCL2 gene was studied, and RPL41 was used as the reference gene (Figure 14).
as §2, §3, §4, §5, §6

COc1ccc(-n2cc(CN3c4ccccc4Sc4ccccc43)nn2)cc1 [compound A]
Growth of xenografted MGC-803 tumor in vivo [1]: effectively inhibit the growth
IC50 [2]: 1.2 µM

CSc1ccc2c(c1)Sc1cc3ccccc3nc1N2Cc1cn(Cc2ccccc2)nn1 [MJ16, 9-Methylthio-6-[(1-benzyl-1H-1,2,3-triazol-4-yl)-methyl]-quino[3,2-b]benzo[1,4]thiazine]
fold induction at 100 µM (MDM2 gene): 6.1
IC50 (BEAS-2B): 84.7 µM
fold induction at 100 µM (AIFM2 gene): 1.3
fold induction at 100 µM (IL6 gene): 11.4
fold induction at 100 µM (IL8 gene): 5.1
fold induction at 100 µM (BCL2 gene): 41.3

Clc1ccc2c(c1)Sc1cc3ccccc3nc1N2Cc1cn(Cc2ccccc2)nn1 [MJ11, 9-Chloro-6-[(1-benzyl-1H-1,2,3-triazol-4-yl)-methyl]-quino[3,2-b]benzo[1,4]thiazine]
fold induction at 100 µM (MDM2 gene): 4.6
IC50 (BEAS-2B): 88.1 µM
fold induction at 100 µM (AIFM2 gene): 0.8
fold induction at 100 µM (IL6 gene): 5.7
fold induction at 100 µM (IL8 gene): 1.4
fold induction at 100 µM (BCL2 gene): 49.9
